pIC50: −log10 of the molar value.
Tests used:
cells = format: functional; details: Homo sapiens, Endothelial progenitor cell; time 48 hrs
SK-HEP1 = test: cells; format: functional, cell-based; details: Homo sapiens, SK-HEP1, 48 h
PC-3 = test: cells; format: functional, cell-based; details: Homo sapiens, PC-3, 48 h
A549 = test: cells; format: functional, cell-based; details: Homo sapiens, A549, 48 h
[1] = biological target: T1, Protein deacetylase HDAC6 (Homo sapiens, UniProt Q9UBN7); test: Inhibition of full length recombinant N-terminal GST-tagged human HDAC6 expressed in baculovirus infected Sf9 insect cells using RHK-K(Ac)-AMC as substrate measured after 90 mins by fluorescence plate reader assay
T1 sequence (Q9UBN7 whole entry): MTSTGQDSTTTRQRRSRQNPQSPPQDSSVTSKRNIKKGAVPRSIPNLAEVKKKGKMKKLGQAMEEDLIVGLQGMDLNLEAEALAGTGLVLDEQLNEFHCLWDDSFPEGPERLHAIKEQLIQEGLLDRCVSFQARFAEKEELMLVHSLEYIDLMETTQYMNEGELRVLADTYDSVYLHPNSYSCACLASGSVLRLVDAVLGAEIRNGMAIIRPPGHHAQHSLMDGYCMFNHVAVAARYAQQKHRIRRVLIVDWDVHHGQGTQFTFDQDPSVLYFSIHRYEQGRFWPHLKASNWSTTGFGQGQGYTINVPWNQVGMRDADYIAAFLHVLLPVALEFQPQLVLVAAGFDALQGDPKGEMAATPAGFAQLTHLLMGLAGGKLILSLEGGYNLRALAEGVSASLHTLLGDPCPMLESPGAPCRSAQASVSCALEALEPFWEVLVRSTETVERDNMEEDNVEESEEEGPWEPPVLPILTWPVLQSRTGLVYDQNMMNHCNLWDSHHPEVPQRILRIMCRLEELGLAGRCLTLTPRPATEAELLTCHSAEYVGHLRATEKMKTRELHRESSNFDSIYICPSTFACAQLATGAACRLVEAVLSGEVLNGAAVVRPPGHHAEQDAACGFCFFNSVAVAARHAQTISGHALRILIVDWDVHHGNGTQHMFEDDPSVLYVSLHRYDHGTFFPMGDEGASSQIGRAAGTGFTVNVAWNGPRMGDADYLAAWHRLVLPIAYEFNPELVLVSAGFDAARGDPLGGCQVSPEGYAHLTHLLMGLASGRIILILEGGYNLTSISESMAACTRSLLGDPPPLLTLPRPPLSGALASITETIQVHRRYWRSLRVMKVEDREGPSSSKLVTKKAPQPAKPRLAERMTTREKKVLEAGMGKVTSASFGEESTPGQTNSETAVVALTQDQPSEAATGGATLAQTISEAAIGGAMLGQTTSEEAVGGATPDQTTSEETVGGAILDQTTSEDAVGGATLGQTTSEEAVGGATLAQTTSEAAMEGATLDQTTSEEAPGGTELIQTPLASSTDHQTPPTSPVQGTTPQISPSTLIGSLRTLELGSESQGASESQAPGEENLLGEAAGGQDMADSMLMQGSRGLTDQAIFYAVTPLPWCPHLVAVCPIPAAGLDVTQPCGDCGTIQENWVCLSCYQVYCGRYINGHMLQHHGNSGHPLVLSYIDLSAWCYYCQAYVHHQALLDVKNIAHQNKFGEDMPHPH

[2] = biological target: T2, Vascular endothelial growth factor receptor 2 (Homo sapiens, UniProt P35968); test: Inhibition of VEGFR2 phosphorylation in human Endothelial progenitor cells at 5 to 10 uM measured after 10 mins by Western blot analysis; format: tissue-based; details: Endothelial progenitor cell, dose 5-10 µM
[3] = biological target: T3, Histone deacetylase (Homo sapiens) (UniProt Q13547+O15379+Q9UBN7+Q92769+Q9UQL6+Q8WUI4+Q9BY41+Q96DB2+P56524+Q9UKV0+Q969S8); test: Inhibition of HDAC in human A549 cells assessed as increase in acetylated histone H3 level measured after 24 hrs by Western blot analysis; format: cell-based; details: dose 5-10 µM
Histone deacetylase 2 = Histone deacetylase 2 (Homo sapiens, UniProt Q92769); test: Inhibition of full length recombinant C-terminal GST-fusion-tagged human HDAC2 expressed in insect cells using RHK-K(Ac)-AMC as substrate measured after 60 mins by fluorescence plate reader assay
Homo sapiens [4] = species: Homo sapiens; test: Selectivity ratio of IC50 for full length recombinant C-terminal FLAG/His-tagged human HDAC1 expressed in baculovirus infected Sf21 insect cells to IC50 for full length recombinant N-terminal GST-tagged human HDAC6 expressed in baculovirus infected Sf9 insect cells
[5] = biological target: T2, Vascular endothelial growth factor receptor 2
Homo sapiens [6] = species: Homo sapiens; test: Selectivity ratio of IC50 for full length recombinant C-terminal GST-fusion-tagged human HDAC2 to IC50 for full length recombinant N-terminal GST-tagged human HDAC6 expressed in baculovirus infected Sf9 insect cells
[7] = biological target: T3, Histone deacetylase (Homo sapiens); test: Inhibition of HDAC in human PC-3 cells assessed as increase in acetylated histone H3 level measured after 24 hrs by Western blot analysis; format: cell-based; details: dose 5-10 µM
[8] = biological target: T3, Histone deacetylase (Homo sapiens); test: Inhibition of HDAC in human SK-HEP1 cells assessed as increase in acetylated alpha tubulin level measured after 24 hrs by Western blot analysis; format: cell-based; details: dose 5-10 µM
[9] = biological target: T3, Histone deacetylase (Homo sapiens); test: Inhibition of HDAC in human A549 cells assessed as increase in acetylated alpha tubulin level measured after 24 hrs by Western blot analysis; format: cell-based; details: dose 5-10 µM
Histone deacetylase 8 = biological target: T4, Histone deacetylase 8 (Homo sapiens, UniProt Q9BY41); test: Inhibition of recombinant C-terminal His-fusion tagged/N-terminal Strep2 tagged human HDAC8 (1 to 377 residues) expressed in insect cells using RHK-K(Ac)-K(Ac)-AMC as substrate measured after 60 mins by fluorescence plate reader assay
T4 sequence (Q9BY41 whole entry): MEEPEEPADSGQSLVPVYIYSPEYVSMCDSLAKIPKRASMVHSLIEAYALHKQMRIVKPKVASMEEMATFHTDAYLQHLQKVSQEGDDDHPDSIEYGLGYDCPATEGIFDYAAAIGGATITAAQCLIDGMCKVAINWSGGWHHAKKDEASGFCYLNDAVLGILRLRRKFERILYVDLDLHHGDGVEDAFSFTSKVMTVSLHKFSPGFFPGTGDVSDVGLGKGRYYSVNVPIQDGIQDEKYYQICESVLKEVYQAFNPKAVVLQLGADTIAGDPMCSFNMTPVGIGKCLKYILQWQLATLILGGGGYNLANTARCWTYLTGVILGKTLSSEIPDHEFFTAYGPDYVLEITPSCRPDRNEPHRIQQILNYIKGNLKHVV

[10] = test system: Endothelial progenitor cell; test: Antiangiogenesis activity in human Endothelial progenitor cells assessed as retarded capillary like tube formation measured for 24 hrs by microscopic analysis; format: functional, tissue-based; details: dose 5-10 µM
Histone deacetylase 1 = Histone deacetylase 1 (Homo sapiens, UniProt Q13547); test: Inhibition of full length recombinant C-terminal FLAG/His-tagged human HDAC1 expressed in baculovirus infected Sf21 insect cells using RHK-K(Ac)-AMC as substrate measured after 60 mins by fluorescence plate reader assay
[11] = biological target: T3, Histone deacetylase (Homo sapiens); test: Inhibition of HDAC in human PC-3 cells assessed as increase in acetylated alpha tubulin level measured after 24 hrs by Western blot analysis; format: cell-based; details: dose 5-10 µM
[12] = biological target: T3, Histone deacetylase (Homo sapiens); test: Inhibition of HDAC in human SK-HEP1 cells assessed as increase in acetylated histone H3 level measured after 24 hrs by Western blot analysis; format: cell-based; details: dose 5-10 µM
Homo sapiens [13] = species: Homo sapiens; test: Selectivity ratio of IC50 for recombinant C-terminal His-fusion tagged/N-terminal Strep2 tagged human HDAC8 (1 to 377 residues) expressed in insect cells to IC50 full length recombinant N-terminal GST-tagged human HDAC6 expressed in baculovirus infected Sf9 insect cells

T2 sequence (P35968 whole entry): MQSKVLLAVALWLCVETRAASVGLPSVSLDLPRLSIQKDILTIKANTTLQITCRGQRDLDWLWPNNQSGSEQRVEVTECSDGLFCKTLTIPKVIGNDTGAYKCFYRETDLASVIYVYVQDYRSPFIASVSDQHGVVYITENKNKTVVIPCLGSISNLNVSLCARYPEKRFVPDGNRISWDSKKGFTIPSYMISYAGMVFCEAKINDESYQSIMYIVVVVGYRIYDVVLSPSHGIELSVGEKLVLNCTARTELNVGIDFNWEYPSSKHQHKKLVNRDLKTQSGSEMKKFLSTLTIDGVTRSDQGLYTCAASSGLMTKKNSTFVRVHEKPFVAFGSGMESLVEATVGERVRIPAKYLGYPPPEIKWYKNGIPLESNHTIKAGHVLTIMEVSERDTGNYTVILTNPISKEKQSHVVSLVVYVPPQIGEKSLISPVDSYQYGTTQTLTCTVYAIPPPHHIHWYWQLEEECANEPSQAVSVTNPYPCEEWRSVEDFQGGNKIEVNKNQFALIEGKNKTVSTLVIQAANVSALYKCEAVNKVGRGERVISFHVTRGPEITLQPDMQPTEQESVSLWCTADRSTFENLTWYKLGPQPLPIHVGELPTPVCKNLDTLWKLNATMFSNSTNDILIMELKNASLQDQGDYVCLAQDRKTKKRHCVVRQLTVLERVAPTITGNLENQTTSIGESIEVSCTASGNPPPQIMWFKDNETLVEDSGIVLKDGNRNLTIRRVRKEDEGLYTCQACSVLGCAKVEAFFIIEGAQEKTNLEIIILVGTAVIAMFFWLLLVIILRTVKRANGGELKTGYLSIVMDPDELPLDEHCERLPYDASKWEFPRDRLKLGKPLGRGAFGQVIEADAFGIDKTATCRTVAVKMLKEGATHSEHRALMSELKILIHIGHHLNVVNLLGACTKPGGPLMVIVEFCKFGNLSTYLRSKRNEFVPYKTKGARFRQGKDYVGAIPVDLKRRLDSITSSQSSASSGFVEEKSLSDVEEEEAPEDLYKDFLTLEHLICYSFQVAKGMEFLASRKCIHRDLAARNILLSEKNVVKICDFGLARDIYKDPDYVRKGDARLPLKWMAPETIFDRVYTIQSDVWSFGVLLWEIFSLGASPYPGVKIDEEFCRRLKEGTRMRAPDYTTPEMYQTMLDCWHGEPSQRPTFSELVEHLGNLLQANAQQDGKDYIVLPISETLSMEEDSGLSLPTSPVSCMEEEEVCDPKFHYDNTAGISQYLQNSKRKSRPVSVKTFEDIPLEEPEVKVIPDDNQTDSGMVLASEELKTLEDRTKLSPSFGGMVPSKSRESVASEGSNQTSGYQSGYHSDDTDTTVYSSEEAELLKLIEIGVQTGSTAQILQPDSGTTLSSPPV
Chain of Histone deacetylase 1 (Q13547 whole entry): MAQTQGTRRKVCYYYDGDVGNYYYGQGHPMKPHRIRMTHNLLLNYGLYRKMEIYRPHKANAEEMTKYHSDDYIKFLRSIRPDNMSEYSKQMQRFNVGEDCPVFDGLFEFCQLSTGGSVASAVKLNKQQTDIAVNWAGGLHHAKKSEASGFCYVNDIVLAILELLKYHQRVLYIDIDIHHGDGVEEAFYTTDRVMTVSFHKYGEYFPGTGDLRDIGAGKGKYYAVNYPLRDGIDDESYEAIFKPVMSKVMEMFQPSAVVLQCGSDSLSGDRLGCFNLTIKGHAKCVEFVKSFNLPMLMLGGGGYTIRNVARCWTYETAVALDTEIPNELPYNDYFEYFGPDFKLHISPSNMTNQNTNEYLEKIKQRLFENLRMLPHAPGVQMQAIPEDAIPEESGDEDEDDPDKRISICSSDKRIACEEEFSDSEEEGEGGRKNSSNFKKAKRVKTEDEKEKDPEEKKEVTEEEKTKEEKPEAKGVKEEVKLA
Chain of Histone deacetylase 2 (Q92769 whole entry, the tested form may be a part): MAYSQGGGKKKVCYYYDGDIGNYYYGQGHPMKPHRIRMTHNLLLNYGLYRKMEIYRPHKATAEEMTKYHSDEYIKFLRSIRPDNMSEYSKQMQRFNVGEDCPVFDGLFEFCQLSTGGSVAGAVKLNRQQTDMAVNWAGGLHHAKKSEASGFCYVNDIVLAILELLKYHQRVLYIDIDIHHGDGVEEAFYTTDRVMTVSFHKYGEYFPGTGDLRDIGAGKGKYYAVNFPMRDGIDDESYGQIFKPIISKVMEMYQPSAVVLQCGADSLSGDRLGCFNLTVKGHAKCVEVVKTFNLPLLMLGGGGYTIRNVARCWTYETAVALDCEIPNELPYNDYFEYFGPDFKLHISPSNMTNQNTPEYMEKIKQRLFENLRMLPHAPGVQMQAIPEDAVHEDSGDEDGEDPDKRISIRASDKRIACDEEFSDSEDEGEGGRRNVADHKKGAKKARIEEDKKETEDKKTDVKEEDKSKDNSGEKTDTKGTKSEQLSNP

Row | SMILES | pIC50 (SK-HEP1) | pIC50 (PC-3) | pIC50 (A549) | pIC50 [1] | GI50 (cells) | other results
1 | O=C(CCCCCC(=O)Nc1ccc(NC(=O)Nc2ccc(Cl)c(C(F)(F)F)c2)cc1)NO | < 5.00 | < 5.00 | < 5.00 | – | > 10 µM | –
2 | O=C(CCCC(=O)Nc1ccc(NC(=O)Nc2ccc(Cl)c(C(F)(F)F)c2)cc1)NO | < 5.00 | < 5.00 | < 5.00 | – | > 10 µM | –
3 | O=C(/C=C/c1ccc(CN2CCc3cc(NC(=O)Nc4ccc(Cl)c(C(F)(F)F)c4)ccc32)cc1)NO | 5.46 | 5.64 | 5.57 | 5.94 | 1.2 µM | –
4 | O=C(/C=C/c1ccc(NC(=O)Nc2ccc(Cl)c(C(F)(F)F)c2)cc1)NO | 5.49 | 5.72 | 5.47 | 6.78 | 1 µM | inhibition [2]: Dose-dependent effect; inhibition [3]: Dose-dependent effect; pIC50 (Histone deacetylase 2): < 5.00; Ratio IC50 (Homo sapiens [4]): 43.6; pIC50 [5]: 4.88; Ratio IC50 (Homo sapiens [6]): > 60.2; inhibition [7]: Dose-dependent effect; inhibition [8]: Dose-dependent effect; inhibition [9]: Dose-dependent effect; pIC50 (Histone deacetylase 8): 5.70; Activity [10]: Dose-dependent effect; pIC50 (Histone deacetylase 1): 5.14; inhibition [11]: Dose-dependent effect; inhibition [12]: Dose-dependent effect; Ratio IC50 (Homo sapiens [13]): 12
5 | O=C(Nc1ccc2c(c1)CCCN2Cc1ccc(C(=O)NO)cc1)Nc1ccc(Cl)c(C(F)(F)F)c1 | 5.35 | 5.49 | 5.52 | – | 1.4 µM | –
6 | O=C(Nc1ccc2c(c1)CCN2c1ccc(C(=O)NO)cc1)Nc1ccc(Cl)c(C(F)(F)F)c1 | 5.39 | 5.42 | 5.47 | 6.08 | 2 µM | –
7 | O=C(Nc1ccc(Nc2ncc(C(=O)NO)cn2)cc1)Nc1ccc(Cl)c(C(F)(F)F)c1 | < 5.00 | < 5.00 | < 5.00 | – | 5.8 µM | –
8 | O=C(CCCCC(=O)Nc1ccc(NC(=O)Nc2ccc(Cl)c(C(F)(F)F)c2)cc1)NO | < 5.00 | < 5.00 | < 5.00 | – | > 10 µM | –
9 | CNC(=O)c1cc(Oc2ccc(NC(=O)Nc3ccc(Cl)c(C(F)(F)F)c3)cc2)ccn1 [SORAFENIB] | 5.14 | 5.20 | 5.30 | – | 5 µM | –

More lines, main results first:

Row | pIC50 (SK-HEP1) | pIC50 (PC-3) | pIC50 (A549) | pIC50 [1] | SMILES | GI50 (cells) | other results
10 | 5.14 | 5.42 | 5.37 | – | O=C(Nc1ccc(NCc2ccc(C(=O)NO)cc2)cc1)Nc1ccc(Cl)c(C(F)(F)F)c1 | 2.8 µM | –
11 | 5.34 | 5.47 | 5.51 | – | O=C(Nc1ccc2c(c1)CCN2Cc1ccc(C(=O)NO)cc1)Nc1ccc(Cl)c(C(F)(F)F)c1 | 1.6 µM | –
12 | 5.42 | 5.51 | 5.14 | – | O=C(Nc1ccc(C(=O)NO)cc1)Nc1ccc(Cl)c(C(F)(F)F)c1 | 1.3 µM | –
13 | 5.35 | 5.51 | 5.55 | 6.60 | O=C(Nc1ccc2c(c1)N(Cc1ccc(C(=O)NO)cc1)CC2)Nc1ccc(Cl)c(C(F)(F)F)c1 | 1.4 µM | inhibition [3]: Dose-dependent effect; inhibition [7]: Dose-dependent effect; inhibition [8]: Dose-dependent effect; inhibition [9]: Dose-dependent effect; pIC50 (Histone deacetylase 8): 5.77; inhibition [11]: Dose-dependent effect; inhibition [12]: Dose-dependent effect; Ratio IC50 (Homo sapiens [13]): 6.8
14 | 5.09 | 5.34 | 5.02 | – | O=C(CCCCCCC(=O)Nc1ccc(NC(=O)Nc2ccc(Cl)c(C(F)(F)F)c2)cc1)NO | 4.5 µM | –
15 | 5.47 | 5.52 | 5.54 | 5.92 | O=C(Nc1ccc2c(c1)CCCN2c1ccc(C(=O)NO)cc1)Nc1ccc(Cl)c(C(F)(F)F)c1 | 1 µM | pIC50 [5]: 4.88

From ChEMBL document CHEMBL5055657, “Effect of phenylurea hydroxamic acids on histone deacetylase and VEGFR-2” (Bioorg Med Chem, 2021)
